Results on 2 molecules are retold here after article PMC11477294, “In Vitro Profiling of the Antiviral Peptide TAT-I24” (International Journal of Molecular Sciences, 2024).

Structures are written as SMILES. pIC50: −log10 of the molar value. Where a SMILES comes first, the peptide text is derived from it. Bridges are numbered along the chain shown (N, C = ends).

For series [1], the system named is MCMV strain delm157-luc rep. Type of series: cell-based, mouse cytomegalovirus. Particulars: luciferase reporter gene expression in NIH/3T3 cells infected with replication-competent MCMV, MOI 0.5, 72 h post-infection; 1:3 dilution series; non-linear regression; n = 9. As for the experimental part:
NIH/3T3 cells were seeded at a density of 2 × 10^4 cells/100 µL per well in a 96-well plate (Sarstedt, Germany) and allowed to attach overnight. On the next day, cells were treated with a 1:3 dilutions series of peptides and, without further pre-incubation, subsequently infected with the MCMV strain delm157-luc rep. The MCMV stock was prepared and quantified as previously described. The virus (MOI 0.5 for luc assays; for other assays, see the specific descriptions) was adsorbed to cells with the aid of centrifugal enhancement twice at 800× g for 15 min at room temperature and incubated at 37 °C for the indicated times. For the luciferase assays, the infected cells were lysed 72 h post-infection using 20 µL Cell Culture Lysis Reagent (Promega, Mannheim, Germany). From the lysates, 10 µL was transferred to white 96-well plates, and luciferase was recorded using a Luciferase Assay System and a GloMax®-Multi Detection System (Promega, Mannheim, Germany).
Background: Reporter assays use an easily measured gene product as a stand-in for the process of interest.

Series [2] concerns baculovirus expressing luciferase under the control of the CMV promoter. Type of series: cell-based. Particulars: luciferase reporter gene expression in HEK293 cells transduced with baculovirus-luc, MOI 5, 24 h post-infection; 1:3 peptide dilution series; non-linear regression; n = 8. As for the experimental part: A baculovirus expressing luciferase under the control of the CMV promoter has been described previously. HEK293 cells were seeded at a density of 2 × 10^4 cells/100 µL per well in 96-well plates (Sarstedt, Germany). On the next day, cells were treated with a 1:3 dilution series of peptides and, without further pre-incubation, subsequently infected with baculovirus–luc at a multiplicity of infection (MOI) of 5. Cells were lysed 24 h post-infection using 20 µL Cell Culture Lysis Reagent (Promega, Mannheim, Germany). From the lysates, 10 µL was transferred to white 96-well plates, and luciferase was recorded using a luciferase assay system and a GloMax®-Multi Detection System (Promega, Mannheim, Germany).

Series [3] relates to human red blood cells (RBCs). As to the kind of experiment: Hemolysis assay with red blood cells. Type of series: cell-based. Particulars: 1 h at 37 °C; for hemolysis of human RBCs: peptide dilutions in PBS or PBS + 10% donor serum, concentrations < 20 µM (1:2 dilutions), OD 450 nm of supernatants, n = 6; for swelling of RBCs (pellet size after centrifugation): peptide dilutions prepared in PBS, up to 20 µM. As for the experimental part:
Blood from healthy volunteers was collected by venipuncture (Greiner Bio-One, Kremsmünster, Austria) into K2E K2EDTA VacuetteTM tubes (Greiner Bio-One, Kremsmünster, Austria) with 4 mL blood. The assay for hemolysis was adapted from Sæbo et al.. Blood was centrifuged at 1000× g for 10 min, and plasma was kept for further use. Red blood cells were then resuspended in 10 mL PBS and centrifuged again at 1000× g for a total of three times. Cells were then counted using a hemocytometer and seeded at a cell number of 1 × 10^7 cells/100 µL PBS per well in conical 96-well plates (ThermoFisher, Darmstadt, Germany). Next, 1:2 peptide dilutions starting from 40 µM either in PBS or 10% donor serum were prepared, and 100 µL was added to 100 µL of RBC. Plates were then incubated for one hour at 37 °C. As the positive control, three wells with 100 µL RBCs were treated with 100 µL PBS + 0.5% Triton X-100. After incubation, plates were centrifuged at 1000× g for 5 min and supernatants were transferred to flat 96-well plates. Optical density (OD) was determined at 450 nm using a GloMax®-Multi Detection System (Promega, Mannheim, Germany). Images from RBCs from light microscopy and centrifuged plates were taken using an iPhone 12 mini.

The next series has as its system HEK293 cells. The series is described as follows: Cell viability assay (CellTiter-Blue) in HEK293 cells. It counts as cell-based. Particulars: 72 h at 37 °C, 3-fold dilution series starting with 20 µM, triplicate, non-linear regression (curve fit). As for the experimental part:
HEK293 cells were seeded at a density of 2.5 × 10^3 cells/100 µL per well in a 96-well plate (Sarstedt, Germany). In addition, a serial 1:2 dilution of the cell suspension was added to each plate to generate a standard curve. On the next day, cells were treated with serial 1:3 peptide dilutions in triplicate and incubated for 72 h at 37 °C. Then, 20 µL of CellTiter-Blue® Cell Viability Assay (Promega, Mannheim, Germany) was added to each well and incubated at 37 °C for a further 1–2 h. Fluorescence was recorded using a GloMax®-Multi Detection System (Promega, Mannheim, Germany). The percentage of viable cells was calculated from the cell dilution series from each plate by linear regression analysis. The selectivity index was calculated using the following formula: SI = CC50/IC50.
Figure S1. Cell viability assay in HEK293 cells in the presence of peptides. Cells were incubated with 3 -fold dilution series of peptides starting with a concentration of 20 µM for 72 hours and measured using the Cell Titer Blue assay. Curve fitting of % viable cells of untrea ted control was performed using Graph Pad Prism softwar e.
(1 picture or pasted object on this page, not shown here)
A general note: Resazurin is reduced to fluorescent resorufin, in cell work by metabolically active cells.

As a reminder, the pIC50 is the IC50 on a negative log10 scale, so that one unit is a factor of ten. In turn, `CSCC[C@H](NC(=O)[C@H](Cc1ccccc1)NC(=O)[C@H](CCCNC(=N)N)NC(=O)[C@H](C)NC(=O)[C@H](Cc1ccc(O)cc1)NC(=O)[C@H](Cc1ccccc1)NC(=O)[C@H](C)NC(=O)[C@H](CC(C)C)NC(=O)[C@H](C)NC(=O)[C@H](CCC(N)=O)NC(=O)[C@@H]1CCCN1C(=O)[C@@H]1CCCN1C(=O)[C@H](CCCNC(=N)N)NC(=O)[C@H](CCCNC(=N)N)NC(=O)[C@H](CCCNC(=N)N)NC(=O)[C@H](CCC(N)=O)NC(=O)[C@H](CCCNC(=N)N)NC(=O)[C@H](CCCNC(=N)N)NC(=O)[C@H](CCCCN)NC(=O)[C@H](CCCCN)NC(=O)[C@H](CCCNC(=N)N)NC(=O)CN)C(=O)O` [C14A, C20R, C22M] (H-GRKKRRQRRRPPQALAFYARFM-OH) showed a pIC50 in series [1] of 5.44. Also, the pIC50 in series [2] is 6.24. Also, in series [3], the “hemolysis of human RBCs” value is given as “neither induce hemolysis” and the “swelling of RBCs (pellet size after centrifugation)” value is “reduced swelling”. In addition, the “HEK293 CC50” value in the series with HEK293 cells amounted to 63 µM.

`CC(C)C[C@@H]1NC(=O)[C@@H](NC(=O)[C@H](CCC(N)=O)NC(=O)[C@@H]2CCCN2C(=O)[C@@H]2CCCN2C(=O)[C@H](CCCNC(=N)N)NC(=O)[C@H](CCCNC(=N)N)NC(=O)[C@H](CCCNC(=N)N)NC(=O)[C@H](CCC(N)=O)NC(=O)[C@H](CCCNC(=N)N)NC(=O)[C@H](CCCNC(=N)N)NC(=O)[C@H](CCCCN)NC(=O)[C@H](CCCCN)NC(=O)[C@H](CCCNC(=N)N)NC(=O)CN)CSSC[C@@H](C(=O)N[C@@H](Cc2ccccc2)C(=O)O)NC(=O)[C@H](C)NC(=O)[C@H](Cc2ccc(O)cc2)NC(=O)[C@H](Cc2ccccc2)NC(=O)[C@H](C)NC1=O` [C22del_cyc] (H-GRKKRRQRRRPPQCLAFYACF-OH; disulfide 14-20): in series [1], the pIC50 was 4.91. This molecule also showed a negative logarithm of the IC50 (pIC50) in series [2] of 5.85. Also, in series [3], the “hemolysis of human RBCs” value is given as “neither induce hemolysis” and the “swelling of RBCs (pellet size after centrifugation)” value is “reduced swelling”.
